{"source": "paper PMC10296094", "about": "“K-Ras Binds Calmodulin-Related Centrin1 with Potential Implications for K-Ras Driven Cancer Cell Stemness” (Cancers, 2023)", "key": {"[1]": {"biological_target": "T1, K-RasG12V/centrin1 (Homo sapiens, UniProt Q12798)", "T1 construct": "expressed in transfected cells; host or cells: HEK293-ebna", "T1 sequence (Q12798 1-172)": "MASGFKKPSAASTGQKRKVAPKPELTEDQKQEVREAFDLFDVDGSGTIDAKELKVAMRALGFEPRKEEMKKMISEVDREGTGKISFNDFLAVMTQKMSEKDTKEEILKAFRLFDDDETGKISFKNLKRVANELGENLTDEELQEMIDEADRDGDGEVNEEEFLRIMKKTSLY", "assay": "Cellular BRET Rluc8-K-RasG12V/GFP2-centrin1 in HEK293-ebna cells", "assay_type": "cell-based", "settings": "for effect on BRETtop of K-RasG12V/centrin1: ophiobolin A 2.5 µM, calmidazolium 10 µM, calmirasone1 20 µM, 24 h, n = 3", "protocol": "Briefly, ~200,000 HEK293-ebna cells were seeded per well of a 12-well plate (cat. no. 665180, Greiner Bio-One, Vivoorde, Belgium) and grown in 1 mL of complete DMEM. The next day, ~1 µg of BRET sensor plasmids was transfected using 2.5 µL of jetPRIME. The concentration of donor plasmid was 25 ng, and that of the acceptor plasmid had increased from 25 ng to 1000 ng for titration curves. Cells were treated with inhibitors or vehicle control (DMSO at 0.2% v/v) 24 h after transfection. Cells were collected the following day in PBS and plated in white, flat bottom 96-well plates (cat. no. 236108, Nunc, Thermo Fisher Scientific). BRET measurements were performed on a Clariostar plate reader (BMG Labtech). Three channels were read. The first channel was First, GFP2-fluorescence (λexcitation 405 ± 10 nm and λemission 515 ± 10 nm), which is directly proportional to the acceptor concentration (RFU). Second, the channel was read after adding coelenterazine 400a (cat. no. C-320, GoldBio, Saint Louis, MO, USA; at 10 μM final concentration) BRET-channel (515 ± 15 nm) readings in well-mode, and then again (third) with the luminescence channel (410 ± 40 nm), and recordings were made. Signals corresponded to the BRET signal and donor (RLU) signals. The ratio of BRET signal/RLU gave the raw BRET ratio. The final BRET ratio (BRET in plots) was obtained by subtracting the raw BRET ratio from the background raw BRET ratio of cells expressing only the donor. The relative expression is calculated as the ratio of RFU/RLU and denoted as [Acceptor]/[Donor]. […]\nFor dose response analysis of inhibitors, on day one, ~200,000 HEK293-ebna cells were seeded per well of a 12-well plate (cat. No. 665180, Greiner Bio-One, Vivoorde, Belgium) and grown in complete DMEM. […] The log inhibitor vs BRET ratio was plotted, and the data were fitted by a log (inhibitor) vs. response variable slope (four parameters) equation of Prism, and the IC50 values were calculated."}, "[2]": {"biological_target": "CaM", "settings": "F-PMCA peptide as probe; read-out: CaM Kd (References); cited from earlier work"}, "[3]": {"biological_target": "T2, centrin1 (Homo sapiens, UniProt Q12798)", "T2 sequence (Q12798 1-172)": "T1 sequence (Q12798 1-172)", "assay": "Fluorescence anisotropy competition: displacement of F-Sfi1 from centrin1 by CaM inhibitors", "assay_type": "binding", "method": "The Sfi1 peptide was derived from 670-REVAA-RESQH-NRQLL-RGALR-RWK-692 of human Sfi1 and the fluorescein was attached to the native C-terminal Lys. Sfi1 peptide titration was performed in a buffer composed of 10 mM HEPES pH 7.4, 100 mM CaCl2, and 0.005% v/v Tween 20. For binding, to a 2-fold dilution series of centrin1, 100 nM of Sfi1 peptide was added, and the reaction mix was incubated for 45 min at RT before anisotropy measurements. For measuring the IC50 of inhibitors to centrin1, to the 3-fold dilution series of inhibitors in the assay buffer, a complex of 100 nM fluorescein labelled Sfi1 peptide and 250 nM His-centrin1 was added in 20 µL volume in a 384-well plate. The fluorescence anisotropy was measured after overnight incubation at RT.\nThe fluorescence anisotropy was measured on a Clariostar (BMG Labtech, Ortenberg, Germany) plate reader using the fluorescence intensity signal recorded from vertical (Iv)- and horizontal (Ih)-polarised light using a fluorescence polarisation module (λexcitation 482 ± 8 nm and λemission 530 ± 20 nm). Fluorescence anisotropy was calculated from the measured fluorescence intensities according to r=Iv−GλIh/Iv+2GλIh, where r is the fluorescence anisotropy value and Iv and Ih are the fluorescence emission intensities detected with vertical and horizontal polarisation, respectively. The instrument specific correction factor G(λ) was set to 1 and not determined further. A quadratic equation as described by others was defined in Prism (GraphPad, version 9.5.1, La Jolla, CA, USA) and was used to determine the KD value of the fluorescein tagged peptides to target protein. y=Af+Ab−Af∗(Lt+KD+x−Lt+KD+x^2−4∗Lt∗x/2Lt\nThe IC50 value of inhibitors was determined by plotting the log concentration of inhibitor against fluorescence anisotropy values and fitting the data to log inhibitor vs. response—variable slope (four parameters) equation in Prism (GraphPad)."}, "[4]": {"tested_on": "CTK/centrin1", "assay": "Cellular BRET donor saturation titration Rluc8-CTK/GFP2-centrin1 in HEK293-ebna cells", "assay_type": "cell-based, human", "settings": "10 µM mevastatin, 24 h", "method": "(§1) The detailed method of our BRET assay can be found in [9, 43]. Briefly, ~200,000 HEK293-ebna cells were seeded per well of a 12-well plate (cat. no. 665180, Greiner Bio-One, Vivoorde, Belgium) and grown in 1 mL of complete DMEM. The next day, ~1 µg of BRET sensor plasmids was transfected using 2.5 µL of jetPRIME. The concentration of donor plasmid was 25 ng, and that of the acceptor plasmid had increased from 25 ng to 1000 ng for titration curves. Cells were treated with inhibitors or vehicle control (DMSO at 0.2% v/v) 24 h after transfection. Cells were collected the following day in PBS and plated in white, flat bottom 96-well plates (cat. no. 236108, Nunc, Thermo Fisher Scientific). BRET measurements were performed on a Clariostar plate reader (BMG Labtech). Three channels were read. The first channel was First, GFP2-fluorescence (λexcitation 405 ± 10 nm and λemission 515 ± 10 nm), which is directly proportional to the acceptor concentration (RFU). Second, the channel was read after adding coelenterazine 400a (cat. no. C-320, GoldBio, Saint Louis, MO, USA; at 10 μM final concentration) BRET-channel (515 ± 15 nm) readings in well-mode, and then again (third) with the luminescence channel (410 ± 40 nm), and recordings were made. Signals corresponded to the BRET signal and donor (RLU) signals. […] The relative expression is calculated as the ratio of RFU/RLU and denoted as [Acceptor]/[Donor]. […]"}, "[5]": {"tested_on": "K-Ras/CaM", "assay": "Cellular BRET donor saturation titration Rluc8-K-Ras/GFP2-CaM in HEK293-ebna cells", "assay_type": "cell-based, human", "settings": "10 µM mevastatin, 24 h", "method": "as §1"}, "[6]": {"tested_on": "K-Ras/centrin1", "assay": "Cellular BRET donor saturation titration Rluc8-K-Ras/GFP2-centrin1 in HEK293-ebna cells", "assay_type": "cell-based, human", "settings": "10 µM mevastatin, 24 h", "method": "as §1"}, "[7]": {"tested_on": "CTK/CaM", "assay": "Cellular BRET donor saturation titration Rluc8-CTK/GFP2-CaM in HEK293-ebna cells", "assay_type": "cell-based, human", "settings": "10 µM mevastatin, 24 h", "method": "as §1"}, "[8]": {"settings": "100 nM F-Sfi1 and 250 nM His-centrin1, overnight at RT, Kd converted from IC50, read-out: Centrin1 Mean Kd (Repeat Values)"}}, "note": "Where two headings read alike, the source gives them in different places.", "data": [{"smiles": "CC(C)=C[C@H]1C[C@H](C)[C@]2(CC[C@]3(C)C[C@H]4[C@H](C(=O)C[C@@]4(C)O)/C(C=O)=C\\C[C@H]32)O1", "note": "[ophiobolin A]", "values": [{"measurement": "effect on BRETtop of K-RasG12V/centrin1", "setting": "[1]", "value": "lowered"}, {"measurement": "Kd", "setting": "[2]", "value": 3.5, "unit": "µM"}, {"measurement": "Kd", "setting": "[3]", "value": 49, "unit": "µM"}]}, {"smiles": "CC[C@H](C)C(=O)O[C@H]1CCC=C2C=C[C@H](C)[C@H](CC[C@@H]3C[C@@H](O)CC(=O)O3)[C@H]21", "note": "[mevastatin]", "values": [{"measurement": "effect on BRET of CTK with centrin1", "setting": "[4]", "value": "did not decrease"}, {"measurement": "BRETtop (CTK + centrin1)", "setting": "[4]; n = 3", "value": "0.061 ± 0.003"}, {"measurement": "effect on BRET-levels of K-Ras with CaM", "setting": "[5]", "value": "did not significantly affect"}, {"measurement": "BRETtop (K-Ras + CaM)", "setting": "[5]; n = 3", "value": "0.097 ± 0.005"}, {"measurement": "effect on BRET-levels of K-Ras with centrin1", "setting": "[6]", "value": "did not significantly affect"}, {"measurement": "BRETtop (K-Ras + centrin1)", "setting": "[6]; n = 3", "value": "0.078 ± 0.005"}, {"measurement": "effect on BRET of CTK with CaM", "setting": "[7]", "value": "did not decrease"}, {"measurement": "BRETtop (CTK + CaM)", "setting": "[7]; n = 3", "value": "0.063 ± 0.004"}]}, {"smiles": "NCCCCCCNS(=O)(=O)c1cccc2c(Cl)cccc12", "note": "[W-7]", "values": [{"measurement": "Kd", "setting": "[2]", "value": 1.47, "unit": "µM"}, {"measurement": "Kd", "setting": "[3]; [8]", "value": 18.2, "unit": "µM"}]}, {"smiles": "Clc1ccc(C(c2ccc(Cl)cc2)n2cc[n+](CC(OCc3ccc(Cl)cc3Cl)c3ccc(Cl)cc3Cl)c2)cc1", "note": "(centres unmarked) [calmidazolium, calmidazolium chloride]", "values": [{"measurement": "IC50", "setting": "[1]; HEK293-ebna, donor/acceptor plasmid ratio 1/19, 24 h treatment, n = 2, read-out: IC50, inhibition of K-RasG12V/centrin1 BRET interaction", "value": "10.44 ± 0.05", "unit": "µM"}, {"measurement": "effect on BRETtop of K-RasG12V/centrin1", "setting": "[1]", "value": "lowered"}, {"measurement": "Kd", "setting": "[2]", "value": 0.0135, "unit": "µM"}, {"measurement": "Kd", "setting": "[3]; [8]", "value": 1.6, "unit": "µM"}]}]}
